Test results from publication PMC3691140, “FGT-1 Is a Mammalian GLUT2-Like Facilitative Glucose Transporter in Caenorhabditis elegans Whose Malfunction Induces Fat Accumulation in Intestinal Cells” (PLoS ONE, 2013).

Tests used:
hGLUT1 = biological target: T1, hGLUT1 (Homo sapiens, UniProt P11166); assay: 3H-2-DG uptake in cRNA-injected Xenopus oocytes; type: cell-based; settings: 10 mM 2-DG, 15 min, pH 7.6; positive control; labelled compound as tracer
T1 construct: gene SLC2A1; pSP64T-hGLUT1, cRNA-injected Xenopus laevis oocytes
T1 sequence (P11166 1-492): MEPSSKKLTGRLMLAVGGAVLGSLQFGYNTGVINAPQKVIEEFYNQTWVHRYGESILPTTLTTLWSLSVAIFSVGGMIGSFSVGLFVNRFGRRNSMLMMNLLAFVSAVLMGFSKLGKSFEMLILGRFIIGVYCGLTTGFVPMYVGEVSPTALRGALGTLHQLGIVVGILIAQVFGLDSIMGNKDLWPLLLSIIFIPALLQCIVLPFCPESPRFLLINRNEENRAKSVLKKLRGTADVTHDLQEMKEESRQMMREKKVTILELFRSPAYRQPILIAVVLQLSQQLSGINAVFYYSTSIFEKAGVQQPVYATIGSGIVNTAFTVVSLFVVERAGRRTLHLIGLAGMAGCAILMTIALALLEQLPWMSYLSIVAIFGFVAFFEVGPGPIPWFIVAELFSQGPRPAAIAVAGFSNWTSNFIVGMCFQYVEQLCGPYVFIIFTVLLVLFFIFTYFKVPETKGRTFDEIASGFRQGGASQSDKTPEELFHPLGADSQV

FGT-1 = biological target: T2, FGT-1 (Caenorhabditis elegans, UniProt O44827); assay: inhibition of 3H-2-DG uptake in Xenopus oocytes; type: cell-based; settings: read-out: % inhibition at 30 mM
T2 construct: gene fdgt-1; full-length fgt-1a cDNA in pSP64T, untagged, cRNA-injected Xenopus laevis oocytes
T2 sequence (O44827 1-492 isoform O44827-2): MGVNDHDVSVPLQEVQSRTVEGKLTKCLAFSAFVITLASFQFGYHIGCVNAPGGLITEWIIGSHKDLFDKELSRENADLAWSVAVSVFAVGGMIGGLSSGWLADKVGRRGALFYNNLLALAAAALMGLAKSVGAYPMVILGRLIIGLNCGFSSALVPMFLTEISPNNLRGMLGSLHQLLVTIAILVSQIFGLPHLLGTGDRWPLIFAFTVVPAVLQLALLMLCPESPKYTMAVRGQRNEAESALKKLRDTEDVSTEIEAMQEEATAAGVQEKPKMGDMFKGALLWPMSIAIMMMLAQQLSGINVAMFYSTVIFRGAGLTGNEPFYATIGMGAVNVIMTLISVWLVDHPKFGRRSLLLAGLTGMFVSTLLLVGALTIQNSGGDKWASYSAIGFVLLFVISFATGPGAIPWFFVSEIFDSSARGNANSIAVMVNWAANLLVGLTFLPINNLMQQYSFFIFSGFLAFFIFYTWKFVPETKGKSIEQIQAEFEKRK

Structure (SMILES)	3H-2-DG uptake in cRNA-injected Xenopus oocytes (hGLUT1)	inhibition at 30000 µM (FGT-1) [%]
OC[C@H]1OC(O)C[C@@H](O)[C@@H]1O (stereo partly drawn) [2-deoxy-D-glucose]	The hGLUT1 cRNA-injected oocytes were used as a positive control	–
OCC1(O)OC[C@@H](O)[C@@H](O)[C@@H]1O (stereo partly drawn) [D-fructose]	–	42
OC[C@H]1OC(O)[C@H](O)[C@@H](O)[C@@H]1O (stereo partly drawn) [D-glucose]	–	79
OC[C@H]1OC(O)[C@@H](O)[C@@H](O)[C@@H]1O (stereo partly drawn) [D-mannose]	–	79
CO[C@H]1[C@H](O)[C@@H](CO)OC(O)[C@@H]1O (stereo partly drawn) [3-O-methylglucose]	–	77
OC[C@H]1OC(O)[C@H](O)[C@@H](O)[C@H]1O (stereo partly drawn) [D-galactose]	–	33
